Results taken from PMC10828645 (Heliyon, 2024).
Read-outs that look alike come from different tables or passages of the source.

Legend:
[1] = cited from earlier work
[2] = marketed drugs; ref [1],[7]; cited from earlier work
[3] = Ionized fraction at pH 7.4 calculated from pKa; settings: for Ionized fraction fcation: pH 7.4, Eq. (5), from literature basic pKa; for Ionized fraction fanion: pH 7.4, Eq. (6), from literature acidic pKa
[4] = ref [1]; cited from earlier work
[5] = assay type: in vivo, CD-1 mice; settings: CD-1, mouse, brain and plasma, intraperitoneal
[6] = Equilibrium dialysis, unbound fraction in plasma; assay type: in vitro ADME, CD-1 mice; settings: CD-1, mouse, pH 7.4
[7] = Equilibrium dialysis, unbound fraction in brain homogenate; assay type: in vitro ADME, CD-1 mice; settings: CD-1, mouse, brain homogenate (10 % w/v), pH 7.4
[8] = marketed drugs, external validation, ref [1],[7]

Row | SMILES | fu,b [2] | Kp,brain ([1]; mouse, in vivo) | Kp,uu,brain ([1]; mouse, in vivo) | Ionized fraction fcation [3] | Basic_pKa [4] | also measured
1 | Cc1ncc2n1-c1ccc(Cl)cc1C(c1ccccc1F)=NC2 [Midazolam] | 0.027 |  |  |  |  | Kp,uu,brain [1, 8]: 0.14
2 | Cc1ccc(-c2nc3ccc(C)cn3c2CC(=O)N(C)C)cc1 [Zolpidem] | 0.200 | 0.29 | 0.24 | 0.2403 | 6.9 | 
3 | O=C1CC2(CCCC2)CC(=O)N1CCCCN1CCN(c2ncccn2)CC1 [Buspirone] |  |  |  | 0.5573 |  | 
4 | CCC(=O)O[C@](Cc1ccccc1)(c1ccccc1)[C@H](C)CN(C)C [Propoxyphene] | 0.033 | 2.90 | 0.85 | 0.9844 |  | 
5 | CN1CCN(C2=Nc3cc(Cl)ccc3Nc3ccccc32)CC1 [Clozapine] | 0.009 |  |  | 0.3339 |  | Kp,brain [1, 8]: 4.10; Kp,uu,brain [1, 8]: 1.01
6 | NC(=O)N1c2ccccc2C=Cc2ccccc21 [Carbamazepine] |  | 0.76 | 0.27 |  |  | Ionized fraction fanion [3]: 0.0003; Acidic_pKa [4]: 10.9
7 | Fc1ccc([C@@H]2CCNC[C@H]2COc2ccc3c(c2)OCO3)cc1 [Paroxetine] | 0.004 | 3.30 | 0.86 | 0.9987 |  | 
8 | CN(C)CCC=C1c2ccccc2C=Cc2ccccc21 [Cyclobenzaprine] | 0.007 | 12.0 | 1.62 | 0.9844 | 9.2 | 
9 | CCOc1ccc(NC(C)=O)cc1 [Phenacetin] |  |  |  |  |  | Kp uu at 2 h [5]: 0.55; fraction unbound at 5 h, 1 μM [6]: 0.701; fraction unbound at 5 h, 1 μM [7]: 0.442
10 | C#CCN(C)[C@H](C)Cc1ccccc1 [Selegiline] | 0.056 | 3.70 | 1.30 | 0.5573 | 7.5 | 
11 | CC(C)NCC(O)COc1cccc2ccccc12 (stereo not shown) [Propranolol] |  |  |  |  |  | Kp uu at 2 h [5]: 3.08; fraction unbound at 5 h, 1 μM [7]: 0.022
12 | CCCC(C)C1(CC)C(=O)NC(=S)NC1=O (stereo not shown) [Thiopental] | 0.146 |  |  |  |  | Ionized fraction fanion [3]: 0.2847; Acidic_pKa [4]: 7.80
13 | CNCCC=C1c2ccccc2CCc2ccccc21 [Nortriptyline] | 0.005 | 11.0 | 1.63 | 0.9980 | 10.1 | 
14 | CN(C)CCCN1c2ccccc2Sc2ccc(Cl)cc21 [Chlorpromazine] |  |  |  | 0.9901 |  | Kp,brain [1, 8]: 23.0; Kp,uu,brain [1, 8]: 0.65
15 | COC(=O)C(c1ccccc1)C1CCCCN1 (stereo not shown) [Methylphenidate] | 0.220 | 12.0 | 3.43 | 0.9994 | 10.6 | 
16 | COCCCC/C(=N\OCCN)c1ccc(C(F)(F)F)cc1 [Fluvoxamine] |  |  |  | 0.9901 |  | 
17 | CCN(CC)CCNC(=O)c1cc(Cl)c(N)cc1OC [Metoclopramide] | 0.310 | 1.20 | 0.52 | 0.9937 |  | Ionized fraction fanion [3]: 0.0001

Row | SMILES | fu,b [2] | Kp,brain ([1]; mouse, in vivo) | Kp,uu,brain ([1]; mouse, in vivo) | Ionized fraction fcation [3] | Basic_pKa [4] | also measured
18 | Cc1nc2n(c(=O)c1CCN1CCC(c3noc4cc(F)ccc34)CC1)CCCC2 [Risperidone] |  |  |  | 0.9091 | 8.4 | Kp,uu,brain [1, 8]: 0.26
19 | C=C[C@H]1C[N@@]2CC[C@H]1C[C@@H]2[C@@H](O)c1ccnc2ccc(OC)cc12 [Quinidine] |  |  |  |  |  | Kp uu at 2 h [5]: 0.05; fraction unbound at 5 h, 1 μM [6]: 0.286
20 | O=c1n(CCCN2CCN(c3cccc(Cl)c3)CC2)nc2ccccn12 [Trazodone] | 0.047 |  | 0.56 | 0.3869 | 7.2 | Kp,brain [1, 8]: 0.61
21 | O=C(CCCN1CCC(O)(c2ccc(Cl)cc2)CC1)c1ccc(F)cc1 [Haloperidol] | 0.007 |  |  | 0.8882 |  | Kp,brain [1, 8]: 13.0; Kp,uu,brain [1, 8]: 1.06
22 | COc1ccc(C(CN(C)C)C2(O)CCCCC2)cc1 (stereo not shown) [Venlafaxine] | 0.210 |  |  | 0.9876 | 9.3 | Kp,brain [1, 8]: 4.20; Kp,uu,brain [1, 8]: 0.98
23 | CNCCC(Oc1ccc(C(F)(F)F)cc1)c1ccccc1 (stereo not shown) [Fluoxetine] |  |  |  | 0.9980 |  | Kp,brain [1, 8]: 12.0; Kp,uu,brain [1, 8]: 0.89
24 | COc1ccc2c3c1O[C@H]1C(=O)CC[C@H]4[C@@H](C2)N(C)CC[C@]314 [Hydrocodone] | 0.550 | 2.10 | 1.96 | 0.9264 | 8.5 | 
25 | CC(=O)CC(c1ccccc1)c1c(O)c2ccccc2oc1=O (stereo not shown) [Warfarin] |  |  |  |  |  | Kp uu at 2 h [5]: 0.19; fraction unbound at 5 h, 1 μM [6]: 0.097; fraction unbound at 5 h, 1 μM [7]: 0.281
26 | CCN1CCCC1CNC(=O)c1cc(S(N)(=O)=O)ccc1OC (stereo not shown) [Sulpiride] |  | 0.08 | 0.06 | 0.9693 | 8.9 | Ionized fraction fanion [3]: 0.0017; Acidic_pKa [4]: 10.2
27 | CCCC(C)(COC(N)=O)COC(=O)NC(C)C (stereo not shown) [Carisoprodol] | 0.202 |  |  |  |  | Kp,brain [1, 8]: 0.66; Kp,uu,brain [1, 8]: 0.34; Ionized fraction fanion [3]: 0.0003; Acidic_pKa [4]: 11.0
28 | O=C1NC(=O)C(c2ccccc2)(c2ccccc2)N1 [Phenytoin] |  |  |  |  |  | Kp,brain [1, 8]: 0.63; Kp,uu,brain [1, 8]: 0.28; Ionized fraction fanion [3]: 0.1118; Acidic_pKa [4]: 8.30
29 | OCCOCCN1CCN(C(c2ccccc2)c2ccc(Cl)cc2)CC1 (stereo not shown) [Hydroxyzine] | 0.010 | 7.70 | 1.51 | 0.3339 | 7.1 | 
30 | CN1CC[C@]23c4c5ccc(O)c4O[C@H]2[C@@H](O)C=C[C@H]3[C@H]1C5 [Morphine] |  |  |  | 0.8882 |  | Ionized fraction fanion [3]: 0.0038
31 | CN[C@H]1CC[C@@H](c2ccc(Cl)c(Cl)c2)c2ccccc21 [Sertraline] |  |  |  | 0.9921 | 9.5 | 
32 | Nc1nnc(-c2cccc(Cl)c2Cl)c(N)n1 [Lamotrigine] | 0.220 | 1.10 | 0.64 |  |  | 
33 | CN(C)CCCC1(c2ccc(F)cc2)OCc2cc(C#N)ccc21 (stereo not shown) [Citalopram] | 0.031 | 5.10 | 0.68 | 0.9937 | 9.6 | 
34 | CCCC(C)(COC(N)=O)COC(N)=O [Meprobamate] | 0.760 |  |  |  |  | Kp,uu,brain [1, 8]: 0.42; Ionized fraction fanion [3]: 0.0001; Acidic_pKa [4]: 11.3
